Measurements published in paper PMC10477886, “Adamantaniline Derivatives Target ATP5B to Inhibit Translation of Hypoxia Inducible Factor‐1α” (Advanced Science, 2023).

System: HIF‐1α protein synthesis
Experiment: AHA labeling assay of nascent HIF‐1α protein
Format: cell-based, human
Conditions: HEK293T, hypoxia, 10 or 20 µM
Protocol: Lysosome and ubiquitin/proteasome systems are two main pathways for cellular protein degradation.^[ [49], [50] ^] MG‐132 and PS‐341 are potent, selective, and reversible proteasome inhibitors, chloroquine (CQ) and NH4Cl are autophagy inhibitors that inhibit lysosomal degradation by increasing lysosomal pH. MG‐132, PS‐341, CQ, NH4Cl, and DMSO at indicated concentrations were added to HEK293T cells for 6 h followed by treatment with DMSO or 10 µM HI‐101 for another 12 h under hypoxia condition. Cells were then collected, lysed, and immunoblotted to detect HIF‐1α protein level. […] In order to verify whether HI‐101 inhibited the synthesis of HIF‐1α protein, L‐azidohomoalanine (AHA) labeling assay^[ [51] ^] was carried out. The nascent protein was labeled by AHA incorporation, enriched by click reaction, and detected by anti‐biotin antibody.
HEK293T cells seeded in 10 cm dishes were added with DMSO or HI‐101 at concentrations 10 or 20 µM, then cultured in hypoxia incubator. The next day, cells were washed twice with PBS and incubated in DMEM without methionine for 4 h. At the same time, add […] (AHA) to all groups, and the positive control group treatment with cycloheximide (CHX). AHA concentration and incubation time were 50 µM and 4 h. […]

`O=C(Nc1ccc(C23CC4CC(CC(C4)C2)C3)cc1)c1cccc(Cl)c1` [1‐3a, N‐(4‐((3r,5r,7r)‐Adamantan‐1‐yl)Phenyl)−3‐Chlorobenzamide] was tested, and the “HIF‐1α protein synthesis (nascent, AHA labeled)” value was “significantly inhibited”.
